The values below are quoted from earlier work in patent US20180100201A1, “TUMOR AND MICROENVIRONMENT GENE EXPRESSION, COMPOSITIONS OF MATTER AND METHODS OF USE THEREOF” (The Broad Institute Inc., priority 2015, published 2018).

This data set has as its system Factor VII. The conditions noted are these: LNP siRNA systems containing these lipids.

Turning to `CCCCC/C=C\C/C=C\CCCCCCCCOCC(CN(C)C)OCCCCCCCC/C=C\C/C=C\CCCCC` (stereo not shown) [DLinDMA, 1,2-dilinoleyloxy-3-N,N-dimethylaminopropane], the “gene silencing potency in hepatocytes in vivo, series” value (shortened to “gene silencing potency in hepatocytes”) is “DLinKC2-DMA>DLinKDMA>DLinDMA>>DLinDAP”.
Turning to `CCCCC/C=C\C/C=C\CCCCCCCC(=O)OCC(CN(C)C)OC(=O)CCCCCCC/C=C\C/C=C\CCCCC` (stereo not shown) [DLinDAP, 1,2-dilineoyl-3-dimethylammonium-propane], the “gene silencing potency in hepatocytes” value is “DLinKC2-DMA>DLinKDMA>DLinDMA>>DLinDAP”.
For the molecule `CCCCC/C=C\C/C=C\CCCCCCCCC1(CCCCCCCC/C=C\C/C=C\CCCCC)OCC(CCN(C)C)O1` (stereo not shown) [DLinKC2-DMA, 1,2-dilinoleyl-4-(2-dimethylaminoethyl)-[1,3]-dioxolane], the “gene silencing potency in hepatocytes” value is “DLinKC2-DMA>DLinKDMA>DLinDMA>>DLinDAP”.
For “1,2-dilinoleyloxy-keto-N,N-dimethyl-3-aminopropane [DLinKDMA]”, the “gene silencing potency in hepatocytes” value is reported as “DLinKC2-DMA>DLinKDMA>DLinDMA>>DLinDAP”.
